Assay results taken from paper PMC12555108, “In‐vitro Assessment of BCRP‐Mediated Efflux of Antiseizure Medications in Human Blood‐Brain Barrier Cell Model” (Journal of Biochemical and Molecular Toxicology, 2025).

What was measured:
[1] = molecular target: T1, BCRP (Homo sapiens, UniProt Q9UNQ0); test: vanadate-sensitive BCRP ATPase assay (membrane vesicles from MCF-7 cells overexpressing BCRP); type: biochemical; parameters: host or cells: MCF-7 cells overexpressing BCRP; conditions: […] µM
T1 sequence (Q9UNQ0 1-655): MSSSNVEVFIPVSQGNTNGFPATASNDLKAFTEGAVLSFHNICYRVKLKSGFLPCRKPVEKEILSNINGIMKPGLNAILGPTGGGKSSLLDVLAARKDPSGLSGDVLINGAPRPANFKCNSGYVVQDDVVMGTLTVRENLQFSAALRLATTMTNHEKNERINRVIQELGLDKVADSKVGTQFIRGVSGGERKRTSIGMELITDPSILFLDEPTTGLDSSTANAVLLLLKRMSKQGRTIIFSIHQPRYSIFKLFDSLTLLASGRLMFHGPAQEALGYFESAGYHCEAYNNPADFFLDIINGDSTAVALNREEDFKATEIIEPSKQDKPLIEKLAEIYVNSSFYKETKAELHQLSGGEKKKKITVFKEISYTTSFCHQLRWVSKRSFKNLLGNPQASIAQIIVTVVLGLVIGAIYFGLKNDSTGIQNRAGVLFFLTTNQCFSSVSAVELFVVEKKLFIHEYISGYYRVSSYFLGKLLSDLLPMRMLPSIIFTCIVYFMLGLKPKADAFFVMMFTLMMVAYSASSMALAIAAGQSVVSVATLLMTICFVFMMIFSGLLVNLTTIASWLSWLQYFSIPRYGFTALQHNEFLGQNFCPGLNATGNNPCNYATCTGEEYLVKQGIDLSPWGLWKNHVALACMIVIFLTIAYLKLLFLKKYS
Method: To assess the interaction between ASMs and BCRP, a vanadate‐sensitive ATPase assay was performed as per the manufacturer's instructions manual. […] After 10 min, 1x developer solution was added and kept for 2 min. To stop the reaction, 100 µL blocker solution was added and incubated for 30 min. at 37°C. The optical densities were measured at 620 nm using an Infinite 200 PRO NanoQuant (Tecan, Zurich, Switzerland) plate reader. 1 μM Ko143 was used as a positive control for BCRP inhibition. Ko143 was used at a concentration that is known to inhibit BCRP efficiently. The results were expressed as vanadate‐sensitive ATPase activity that is based on the difference in inorganic phosphate released between samples with and without vanadate. This will evaluate the ability of the test ASM to stimulate BCRP's baseline ATPase activity.

[2] = parameters: method as in Johannessen, 2004; Patsalos, 2008; Lee, 2016; conditions: patients with epilepsy; ref Johannessen, 2004; Patsalos, 2008; Lee, 2016; cited from earlier work
[3] = molecular target: T1, BCRP; test: bidirectional transport assay across hCMEC/D3 cell monolayer with or without Ko143; conditions: for transport by BCRP (conclusion of bidirectional transport assay): ER ≥ 1.5 and significantly reduced by Ko143
Method: For transport assays, hCMEC/D3 cells were seeded on collagen type I‐coated Transwell inserts (polycarbonate 12‐well, pore size […]) (cat. no. CLS3460; Corning, NY, USA) at 80% confluency and cultured as described in section 2.5. In brief, the drug was dissolved in Hanks’ balanced salt solution supplemented with 10 mM HEPES, 1 mM Na‐Pyruvate, pH 7.4 at 37°C (transport buffer). Initially, both sides of the chamber were washed with 1X PBS and the assay was performed with pre‐warmed transport buffer. 0.5 ml or 1.5 ml of the drug solution, with or without BCRP‐specific inhibitor Ko143 (1 μM) was added to either the apical side or basolateral side of the monolayer, respectively, and fresh transport buffer was added to the opposite side. Aliquots of 100 μl samples were taken from the opposite sides every 30 min for 2 h, and the same amount of fresh transport buffer was added to the same chamber after each sampling. […] Concentrations of ASMs were evaluated by HPLC or LC/MS. Apparent permeability (Papp) is defined as the transport rate of ASM and efflux ratio (ER) was calculated as the ratio of Papp in the basolateral‐to‐apical (Papp(B→A)) direction to the Papp in the apical‐to‐basolateral (Papp(A→B)) direction. The samples were stored at −20°C until analysis. […] Fluorescence detection of lucifer yellow (excitation at 430 nm, and emission at 535 nm) was carried out with Infinite 200 PRO NanoQuant (Tecan, Zurich, Switzerland). […] All transport assays were performed in triplicate.
The calculation for apparent permeability coefficient, Papp, was performed as described before. Papp=dQr/dt/A×C0 where dQr/dt is the cumulative amount in the receiver side vs time in μM/s
A is the area of the cell monolayer
C0 is the initial concentration of the dosing solution (μM).
And, Efflux ratio=Papp(B−to−A)/Papp(A−to−B)

[4] = molecular target: T1, BCRP; test: competitive substrate efflux assay (BODIPY-prazosin accumulation) in hCMEC/D3 cells; type: cell-based
Method: The potential of ASMs to compete with a known fluorescent substrate of BCRP, BPZ in hCMEC/D3 cells was examined using a competitive substrate efflux assay that has previously been used in various studies. The interaction of CBZ, DCLB, OXC, TPM, and LEVI with BCRP was evaluated. Initially, hCMEC/D3 were seeded in 12‐well plates (cat. no. 150628, Nunc, Thermo Fisher Scientific, MA, USA) at 70‐80% confluency for 24 h. In this study, Ko143 was used for BCRP inhibition. The cultured cells were incubated at 37°C for half an hour in media containing BPZ with either the test ASMs or Ko143. Cells were washed with chilled 1X PBS three times and again incubated at 37°C for 1 h 30 min in BPZ‐free media with or without Ko143. Cells were washed three times with ice‐cold 1X PBS to terminate the assay. Cell lysis was performed by adding 1% triton X‐100, followed by incubating the cells for 15 min at 37°C. 20 µl of cell lysate was placed in 384‐well black assay plates for fluorescence detection (excitation at 488 nm; emission at 530 nm) to Infinite 200 PRO NanoQuant (Tecan, Zurich, Switzerland). The rest of the cell lysate was used for determining protein levels using the BCA protein estimation method to normalize the observed fluorescence intensity with total protein yield. The data were shown as a fold increment in intracellular fluorescence of BPZ relative to the control.

[5] = molecular target: T1, BCRP; parameters: host or cells: MCF-7 cells overexpressing BCRP; conditions: previous study; cited from earlier work
[6] = 5 μM, hCMEC/D3 monolayer, 1 μM Ko143
[7] = 10 μM, hCMEC/D3 monolayer, 1 μM Ko143

## O=C1CC(=O)N(c2ccccc2)c2cc(Cl)ccc2N1 [DCLB, N‐desmethyl clobazam]
[1]
  stimulation of BCRP ATPase activity (activation assay): significantly stimulated
[2]
  Therapeutic plasma concentration range: 1 to 10 µM
[3]; 5 μM, hCMEC/D3 monolayer
  Efflux ratio (ER), hCMEC/D3 without inhibitor Ko143: 2
  Papp A-->B, hCMEC/D3 without inhibitor Ko143: 2.83 ×10⁻⁶ cm/s
  Papp B-->A, hCMEC/D3 without inhibitor Ko143: 5.66 ×10⁻⁶ cm/s
[3]; [6]
  Efflux ratio (ER), hCMEC/D3 with inhibitor Ko143: ~1
  Papp A-->B, hCMEC/D3 with inhibitor Ko143: 5.66 ×10⁻⁶ cm/s
  Papp B-->A, hCMEC/D3 with inhibitor Ko143: 5.66 ×10⁻⁶ cm/s
[3]; 5 μM, hCMEC/D3 monolayer, listed as N‐desmethyl clobazam
  Efflux ratio (ER), hCMEC/D3 without inhibitor Ko143: 2.0
[3]; 10 μM, hCMEC/D3 monolayer
  Efflux ratio (ER), hCMEC/D3 without inhibitor Ko143: 2
  Papp A-->B, hCMEC/D3 without inhibitor Ko143: 2.83 ×10⁻⁶ cm/s
  Papp B-->A, hCMEC/D3 without inhibitor Ko143: 5.66 ×10⁻⁶ cm/s
[3]; [7]
  Efflux ratio (ER), hCMEC/D3 with inhibitor Ko143: ~1
  Papp A-->B, hCMEC/D3 with inhibitor Ko143: 2.83 ×10⁻⁶ cm/s
  Papp B-->A, hCMEC/D3 with inhibitor Ko143: 2.83 ×10⁻⁶ cm/s
[3]; 10 μM, hCMEC/D3 monolayer, listed as N‐desmethyl clobazam
  Efflux ratio (ER), hCMEC/D3 without inhibitor Ko143: 2.0
[3]; at all the tested concentrations, hCMEC/D3 monolayer
  Efflux ratio (ER) without inhibitor: above 1.5
[3]; at all the tested concentrations, hCMEC/D3 monolayer, 1 μM Ko143
  Efflux ratio (ER) in the presence of Ko143: ~1
[3]; hCMEC/D3 monolayer
  transport by BCRP (conclusion of bidirectional transport assay): transports
[4]; 1 and 10 µM
  BPZ accumulation in hCMEC/D3 cells: significantly increased

## O=C1c2c(O)ccc(O)c2C(=O)c2c(NCCNCCO)ccc(NCCNCCO)c21 [MXR, mitoxantrone]
[3]; human, pH 7.4
  Papp A→B at 2 h, 5 μM: 5.1 ×10⁻⁶ cm/s
  Papp B→A at 2 h, 5 μM: 12.7 ×10⁻⁶ cm/s
[3]; human, pH 7.4, with Ko143 1 μM
  Papp A→B at 2 h, 5 μM: 10.2 ×10⁻⁶ cm/s
  Papp B→A at 2 h, 5 μM: 10.6 ×10⁻⁶ cm/s

## CC1(C)O[C@@H]2[C@@H](CO[C@@]3(COS(N)(=O)=O)OC(C)(C)O[C@@H]23)O1 [TPM, topiramate]
[2]
  Therapeutic plasma concentration range: 15 to 60 µM
[3]; hCMEC/D3 monolayer
  transport by BCRP (conclusion of bidirectional transport assay): not
[3]; human, pH 7.4
  Papp A→B at 2 h, 15 µM: 0.71 ×10⁻⁶ cm/s
  Papp A→B at 2 h, 60 µM: 20 ×10⁻⁶ cm/s
  Papp B→A at 2 h, 15 µM: 0.71 ×10⁻⁶ cm/s
  Papp B→A at 2 h, 60 µM: 25.5 ×10⁻⁶ cm/s
[3]; human, pH 7.4, Efflux ratio (ER) without inhibitor, at all the tested concentrations, hCMEC/D3 monolayer
  efflux ratio at 2 h: < 1.5
[3]; human, pH 7.4, Efflux ratio (ER), hCMEC/D3 without inhibitor Ko143, 15 μM, hCMEC/D3 monolayer
  efflux ratio at 2 h, 15 µM: 1.06
[3]; human, pH 7.4, Efflux ratio (ER), hCMEC/D3 without inhibitor Ko143, 60 μM, hCMEC/D3 monolayer
  efflux ratio at 2 h, 60 µM: 1.17
[3]; human, pH 7.4, with Ko143 1 μM
  Papp A→B at 2 h, 15 µM: 12.3 ×10⁻⁶ cm/s
  Papp A→B at 2 h, 60 µM: 159 ×10⁻⁶ cm/s
  Papp B→A at 2 h, 15 µM: 14.2 ×10⁻⁶ cm/s
  Papp B→A at 2 h, 60 µM: 190 ×10⁻⁶ cm/s
[3]; human, pH 7.4, with Ko143 1 µM, Efflux ratio (ER), hCMEC/D3 with inhibitor Ko143, 15 μM, hCMEC/D3 monolayer, 1 μM Ko143
  efflux ratio at 2 h, 15 µM: 1.16
[3]; human, pH 7.4, with Ko143 1 µM, Efflux ratio (ER), hCMEC/D3 with inhibitor Ko143, 60 μM, hCMEC/D3 monolayer, 1 μM Ko143
  efflux ratio at 2 h, 60 µM: 1.13
[5]
  stimulation of BCRP ATPase activity: no significant stimulation
[4]
  intracellular accumulation of BPZ in hCMEC/D3 cells: did not affect
